Measurements reported in a compilation of properties of binary mixtures (doi:10.1021/acs.jpcb.9b10454).

Experiment: xn = mol fraction of the nth substance listed
Settings: 303.15 K, 100 kPa

CCn1cc[nH+]c1.O=S(=O)([N-]S(=O)(=O)C(F)(F)F)C(F)(F)F + c1c[nH]cn1
Settings | electrical conductivity [S/m] | viscosity [mPa·s]
x1 = 0.194 | 0.891 | –
x1 = 0.252 | – | 20.7
x1 = 0.333 | – | 23
x1 = 0.385 | 0.616 | –
x1 = 0.501 | – | 25.3
x1 = 0.597 | 0.587 | –
x1 = 0.601 | – | 25.6
x1 = 0.671 | – | 27.7
x1 = 0.79 | 0.556 | –
x1 = 0.802 | – | 24.3
x1 = 0.889 | 0.512 | –
x1 = 0.901 | – | 26.7
x1 = 1 | – | 38.8
